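All cell lines were grown in 96-well plates and treated with compound for 48 hours. Here, GI50 denotes the concentration required for 50% inhibition of growth. TGI: concentration producing complete growth inhibition.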
Experiments:
Experiment in all cases: inhibition of tumour cell growth, NCI panel, 48 h
[1] = tested on: MDA-MB-231 breast
[2] = tested on: COLO 205 colon
[3] = tested on: SF-539 CNS
[4] = tested on: NCI-H522 lung
[5] = tested on: SK-OV-3 ovarian
[6] = tested on: SF-268 CNS
[7] = tested on: HOP-92 NSCLC
[8] = tested on: MDA-MB-435
[9] = tested on: M14 melanoma
[10] = tested on: IGROV1 ovarian
[11] = tested on: LOX IMVI melanoma
[12] = tested on: MCF7 breast
[13] = tested on: HCT-15 colon
[14] = tested on: NCI-H226 lung
[15] = tested on: UO-31 renal
[16] = tested on: MOLT-4 leukemia
[17] = tested on: HL-60(TB) leukemia
[18] = tested on: A549 NSCLC
[19] = tested on: BT-549 breast
[20] = tested on: OVCAR-3 ovarian
[21] = tested on: TK-10 renal
[22] = tested on: A498 renal
[23] = tested on: HOP-62 NSCLC
[24] = tested on: KM12 colon
[25] = tested on: NCI/ADR-RES ovarian
[26] = tested on: SK-MEL-5 melanoma
[27] = tested on: SNB-75 CNS
[28] = tested on: DU-145 prostate
[29] = tested on: SNB-19 CNS
[30] = tested on: RPMI-8226 leukemia
[31] = tested on: PC-3 prostate
[32] = tested on: SF-295 CNS
[33] = tested on: NCI-H460 lung
[34] = tested on: SW-620 colon
[35] = tested on: SN12C renal
[36] = tested on: U251 CNS
[37] = tested on: K-562 leukemia
[38] = tested on: NCI-H23 lung
[39] = tested on: OVCAR-5 ovarian
[40] = tested on: ACHN renal
[41] = tested on: RXF 393 renal
[42] = tested on: SR leukemia
[43] = tested on: EKVX NSCLC
[44] = tested on: 786-0 renal
[45] = tested on: CAKI-1 renal
[46] = tested on: SK-MEL-28 melanoma
[47] = tested on: OVCAR-8 ovarian
[48] = tested on: UACC-257 melanoma
[49] = tested on: SK-MEL-2 melanoma
[50] = tested on: HS 578T breast
[51] = tested on: HT29 colon
[52] = tested on: HCT-116 colon
[53] = tested on: UACC-62 melanoma
[54] = tested on: T-47D breast
[55] = tested on: OVCAR-4 ovarian
[56] = tested on: MALME-3M melanoma
[57] = tested on: CCRF-CEM leukemia
[58] = tested on: HCC-2998 colon

CCOC1Oc2ccccc2C(=O)/C1=C\Nc1ccc(C(=O)O)c(O)c1 (stereo not drawn)
GI50 [1]: 14 µM
TGI [1]: 31.2 µM
GI50 [2]: 23.9 µM
TGI [2]: 56.5 µM
GI50 [3]: 25.5 µM
TGI [3]: 59.5 µM
GI50 [4]: > 100 µM
TGI [4]: > 100 µM
GI50 [5]: 21.7 µM
TGI [5]: 67.6 µM
GI50 [6]: 26.1 µM
TGI [6]: 80.8 µM
GI50 [7]: 19.6 µM
TGI [7]: 60.6 µM
GI50 [8]: 20.4 µM
TGI [8]: 44.4 µM
GI50 [9]: 17.3 µM
TGI [9]: 36 µM
GI50 [10]: 43.9 µM
TGI [10]: > 100 µM
GI50 [11]: 18.2 µM
TGI [11]: 46.8 µM
GI50 [12]: 29.9 µM
TGI [12]: > 100 µM
GI50 [13]: 16.4 µM
TGI [13]: 45.9 µM
GI50 [14]: 28.1 µM
TGI [14]: 80.1 µM
GI50 [15]: 40.2 µM
TGI [15]: > 100 µM
GI50 [16]: > 100 µM
TGI [16]: > 100 µM
GI50 [17]: 32.7 µM
TGI [17]: > 100 µM
GI50 [18]: > 100 µM
TGI [18]: > 100 µM
GI50 [19]: 26.4 µM
TGI [19]: 87.5 µM
GI50 [20]: 25.2 µM
TGI [20]: 56.3 µM
GI50 [21]: 22.8 µM
TGI [21]: 61.3 µM
GI50 [22]: 30.6 µM
TGI [22]: 73.7 µM
GI50 [23]: 32.4 µM
TGI [23]: > 100 µM
GI50 [24]: 26.3 µM
TGI [24]: 65 µM
GI50 [25]: 20.5 µM
TGI [25]: 62 µM
GI50 [26]: 18.6 µM
TGI [26]: 37.4 µM
GI50 [27]: 20.3 µM
TGI [27]: 58.3 µM
GI50 [28]: 34.1 µM
TGI [28]: > 100 µM
GI50 [29]: 28.6 µM
TGI [29]: 94.4 µM
GI50 [30]: 20 µM
TGI [30]: > 100 µM
GI50 [31]: 39.2 µM
TGI [31]: > 100 µM
GI50 [32]: 21.9 µM
TGI [32]: 55.4 µM
GI50 [33]: 38.9 µM
TGI [33]: > 100 µM
GI50 [34]: 30.8 µM
TGI [34]: > 100 µM
GI50 [35]: 16.5 µM
TGI [35]: 36.7 µM
GI50 [36]: 19.1 µM
TGI [36]: 46.5 µM
GI50 [37]: 36.4 µM
TGI [37]: > 100 µM
GI50 [38]: 21.4 µM
TGI [38]: 63.1 µM
GI50 [39]: 43.2 µM
TGI [39]: > 100 µM
GI50 [40]: 18.3 µM
TGI [40]: 44.3 µM
GI50 [41]: 16.9 µM
TGI [41]: 41.9 µM
GI50 [42]: 39.4 µM
TGI [42]: > 100 µM
GI50 [43]: 36.7 µM
TGI [43]: 96.1 µM
GI50 [44]: 30.1 µM
TGI [44]: > 100 µM
GI50 [45]: 20.9 µM
TGI [45]: 44 µM
GI50 [46]: 23.9 µM
TGI [46]: 65.9 µM
GI50 [47]: 19.3 µM
TGI [47]: 54 µM
GI50 [48]: 19.4 µM
TGI [48]: 44.6 µM
GI50 [49]: 46.7 µM
TGI [49]: > 100 µM
GI50 [50]: 35 µM
TGI [50]: 90 µM
GI50 [51]: 28.7 µM
TGI [51]: 72.7 µM
GI50 [52]: 15.7 µM
TGI [52]: 35.1 µM
GI50 [53]: 19.6 µM
TGI [53]: 43.5 µM

COc1ccc(-c2ccc(-c3ccc(C(=N)N)cc3)s2)cc1Cl
GI50 [5]: 1.98 µM
TGI [5]: 4.46 µM
GI50 [17]: 1.91 µM
TGI [17]: 4.05 µM
GI50 [24]: 1.75 µM
TGI [24]: 3.13 µM
GI50 [54]: 1.85 µM
TGI [54]: 4.33 µM
GI50 [28]: 1.7 µM
TGI [28]: 3.06 µM
GI50 [39]: 1.55 µM
TGI [39]: 2.88 µM
GI50 [40]: 1.62 µM
TGI [40]: 2.97 µM
GI50 [49]: 2.05 µM
TGI [49]: 4.2 µM

Cc1cc2oc(=O)cc(OC/C=C3/CCC(=O)O3)c2cc1C
GI50 [1]: 7.71 µM
TGI [1]: 21 µM
GI50 [2]: 2.19 µM
TGI [2]: 10.4 µM
GI50 [3]: 1.34 µM
TGI [3]: 5.7 µM
GI50 [4]: 1.4 µM
TGI [4]: 2.97 µM
GI50 [5]: 12.8 µM
TGI [5]: 26.1 µM
GI50 [6]: 6.46 µM
TGI [6]: 40.1 µM
GI50 [7]: 1.65 µM
TGI [7]: 10.6 µM
GI50 [55]: 2.56 µM
TGI [55]: 13.7 µM
GI50 [8]: 4.64 µM
TGI [8]: 18.5 µM
GI50 [9]: 2.18 µM
TGI [9]: 4.87 µM
GI50 [10]: 3.33 µM
TGI [10]: 14.6 µM
GI50 [11]: 1.82 µM
TGI [11]: 4.59 µM
GI50 [12]: 2.25 µM
TGI [12]: 12.6 µM
GI50 [13]: 2.69 µM
TGI [13]: 12.2 µM
GI50 [14]: 10.8 µM
TGI [14]: 51.1 µM
GI50 [15]: 1.49 µM
TGI [15]: 4.88 µM
GI50 [16]: 2.25 µM
TGI [16]: 13.4 µM
GI50 [56]: 2.39 µM
TGI [56]: 7.62 µM
GI50 [18]: 13.4 µM
TGI [18]: 27.1 µM
GI50 [19]: 1.93 µM
TGI [19]: 6.73 µM
GI50 [20]: 2.93 µM
TGI [20]: 11.4 µM
GI50 [57]: 2.33 µM
TGI [57]: 7.25 µM
GI50 [21]: 2 µM
TGI [21]: 8.34 µM
GI50 [22]: 2.14 µM
TGI [22]: 12 µM
GI50 [23]: 12.1 µM
TGI [23]: 26.4 µM
GI50 [24]: 3.31 µM
TGI [24]: 18 µM
GI50 [54]: 1.69 µM
TGI [54]: 7.5 µM
GI50 [25]: 5.09 µM
TGI [25]: 23.2 µM
GI50 [26]: 12.4 µM
TGI [26]: 26.3 µM
GI50 [27]: 1.97 µM
TGI [27]: 9.61 µM
GI50 [28]: 2.67 µM
TGI [28]: 12.4 µM
GI50 [29]: 3.04 µM
TGI [29]: 19 µM
GI50 [30]: 0.512 µM
TGI [30]: 4.01 µM
GI50 [31]: 1.74 µM
TGI [31]: 11.4 µM
GI50 [32]: 13.7 µM
TGI [32]: 32 µM
GI50 [33]: 6.6 µM
TGI [33]: 32.5 µM
GI50 [34]: 2.78 µM
TGI [34]: 11.6 µM
GI50 [35]: 5.2 µM
TGI [35]: 22.5 µM
GI50 [36]: 3.42 µM
TGI [36]: 15.1 µM
GI50 [37]: 8.23 µM
TGI [37]: 34.1 µM
GI50 [38]: 8.04 µM
TGI [38]: 22.5 µM
GI50 [39]: 8.7 µM
TGI [39]: 22.9 µM
GI50 [40]: 0.804 µM
TGI [40]: 2.04 µM
GI50 [41]: 1.83 µM
TGI [41]: 9.81 µM
GI50 [43]: 12.9 µM
TGI [43]: 30.5 µM
GI50 [44]: 2.57 µM
TGI [44]: 10.4 µM
GI50 [45]: 3.59 µM
TGI [45]: 17.7 µM
GI50 [46]: 10.6 µM
TGI [46]: 24 µM
GI50 [47]: 4.62 µM
TGI [47]: 19.5 µM
GI50 [48]: 12.3 µM
TGI [48]: 26.4 µM
GI50 [49]: 3.41 µM
TGI [49]: 16.1 µM
GI50 [50]: 4.76 µM
TGI [50]: 43.7 µM
GI50 [51]: 2.9 µM
TGI [51]: 12.7 µM
GI50 [58]: 15.4 µM
TGI [58]: 31 µM
GI50 [52]: 2.72 µM
GI50 [53]: 3.38 µM
TGI [53]: 13.6 µM

Reference: PubChem BioAssay (NCI)
